Data on 16 compounds can be found in the supplement of paper PMC11281043.

SMILES strings stand for the structures.

Conditions in all cases: exposure: 6-8 hpf to 5 dpf, scored at 6 dpf
For assay [1], the system named is Danio rerio embryo/larva. Put plainly: max % larvae with craniofacial defects across tested concentrations; higher = more toxic; extreme values may be limits of the assay.
The test system of assay [2] is Danio rerio embryo/larva. The experiment in a line: max % larvae with spinal defects across tested concentrations; higher = more toxic; extreme values may be limits of the assay.
Assay [3] concerns Danio rerio embryo/larva. Put plainly: max % larvae with tail defects across tested concentrations; higher = more toxic; extreme values may be limits of the assay.
Assay [4] relates to Danio rerio embryo/larva. The experiment in a line: max % larvae with blood pooling across tested concentrations; higher = more toxic; extreme values may be limits of the assay.
For assay [5], the system named is Danio rerio embryo/larva. Put plainly: max % larvae with pigmentation defects across tested concentrations; higher = more toxic.
For assay [6], the system named is Danio rerio embryo/larva. The experiment in a line: max % larvae with edema across tested concentrations; higher = more toxic; extreme values may be limits of the assay.
The test system of assay [7] is Danio rerio embryo/larva. Put plainly: max % larvae with uninflated swim bladder across tested concentrations; higher = more toxic; extreme values may be limits of the assay.
Assay [8] has as its system Danio rerio embryo/larva. Put plainly: max % larvae with abnormal position across tested concentrations; higher = more toxic; extreme values may be limits of the assay.
Assay [9] concerns Danio rerio embryo/larva. Put plainly: max % larvae generally abnormal across tested concentrations; higher = more toxic; extreme values may be limits of the assay.
For assay [10], the system named is Danio rerio embryo/larva. Put plainly: max % larvae unhatched across tested concentrations; max tested concentration (log10 uM): 2; higher = more toxic.
Assay [11] has as its system Danio rerio embryo/larva. The experiment in a line: max % larvae with any abnormality across tested concentrations; max tested concentration (log10 uM): 2; higher = more toxic; extreme values may be limits of the assay.

Regarding `COC(=O)C(F)(F)C(F)(F)OC(F)(C(F)(F)F)C(F)(F)OC(F)=C(F)F` (centres undefined) [Methyl perfluoro(3-(1-ethenyloxypropan-2-yloxy)propanoate)] (max tested concentration (log10 uM): 1.60206), the max % larvae in assay [1] was 0%; in assay [2], 0%; in [3], 0%; in [4], 0%; in [5], 0%; in assay [6], 8.33%. In addition, the max % larvae in assay [7] is 0%; in [8], 4.17%. Also, in [9], the “max % larvae generally abnormal across tested concentrations” value was determined as 8.33%.

With `O=C(O)C(F)(F)C(F)(F)C(F)(F)C(F)(F)C(F)(F)C(F)(F)C(F)(F)F` [Ammonium perfluorooctanoate], the “max % larvae unhatched across tested concentrations” value in assay [10] was found to be 0%. For the same compound, in assay [11], the max % larvae worked out at 16.7%.

Take `FC(F)(F)C(F)(F)C(F)(F)C(F)(F)C(F)(F)C(F)(F)C(F)(F)I` [1-Iodopentadecafluoroheptane] (max tested concentration (log10 uM): 2): the max % larvae in [1] was 10%; in [2], 8.33%; in assay [3] it was 0%; in [4], 16.7%; in assay [5] it was 0%; in assay [6], 30%. In addition, the max % larvae in assay [7] was 80%; in [8], 10.4%.

`N=C(N)C(F)(F)C(F)(F)C(F)(F)C(F)(F)C(F)(F)C(F)(F)C(F)(F)F` [Perfluorooctanamidine] (max tested concentration (log10 uM): 1): the max % larvae in assay [1] turned out to be 0%; in assay [2], 0%; in assay [3], 0%; in assay [4] it was 16.7%; in assay [5], 0%; in assay [6], 4.17%. Besides, the max % larvae in assay [7] and in [8] was 0% throughout. In [9], the “max % larvae generally abnormal across tested concentrations” value worked out at 8.33%.

Consider `O=C(O)C(F)(F)C(F)(F)C(F)(F)C(F)(F)C(F)(F)C(F)(F)C(F)(F)F` [Perfluorooctanoic acid], for which the “max % larvae unhatched across tested concentrations” value in assay [10] turned out to be 0%. Also, the max % larvae in assay [11] came to 16.7%.

Turning to `O=C(O)C(F)(F)OC(F)(F)C(F)(F)OC(F)(F)F` [Perfluoro-3,6-dioxaheptanoic acid] (max tested concentration (log10 uM): 2), the max % larvae in assay [1] came out at 0%; in assay [2], 0%; in assay [3] it was 0%; in assay [4] it was 0%; in assay [5] it was 0%; in assay [6], 4.17%. The max % larvae in assay [7] and in assay [8] was 0% in each case. Besides, the “max % larvae generally abnormal across tested concentrations” value in [9] is 4.17%.

Take `C=C(C)C(=O)OCC(F)(F)C(F)(F)C(F)(F)C(F)(F)C(F)(F)C(F)(F)C(F)(F)F` [(Perfluoroheptyl)methyl methacrylate] (max tested concentration (log10 uM): 1.60206): the max % larvae in [1], in [2], in [3], in assay [4], in assay [5] and in [6] was 0% in each case. Also, the max % larvae in [7] and in [8] was 0% throughout. Besides, the “max % larvae generally abnormal across tested concentrations” value in [9] came out at 0%.

Consider `O=S(=O)(O)CCC(F)(F)C(F)(F)C(F)(F)C(F)(F)C(F)(F)C(F)(F)F` [6:2 Fluorotelomer sulfonic acid] (max tested concentration (log10 uM): 2), for which the max % larvae in assay [1] was 0%; in assay [2] it was 0%; in assay [3], 0%; in assay [4], 0%; in [5], 0%; in [6] it was 4.17%. For the same compound, the max % larvae was 0% in [7] and 4.17% in assay [8].

On to `O=C(O)C(F)(F)OC(F)(F)C(F)(F)OC(F)(F)C(F)(F)C(F)(F)C(F)(F)F` [Perfluoro-3,6-dioxadecanoic acid] (max tested concentration (log10 uM): 2), for which the max % larvae in [1] is 75%; in [2], 0%; in assay [3] it was 6.25%; in assay [4], 50%; in [5], 0%; in assay [6] it was 56.2%. The max % larvae in [7] worked out at 62.5%; in [8], 31.2%. The “max % larvae generally abnormal across tested concentrations” value in assay [9] was 68.8%.

As to `O=S(=O)(O)C(F)(F)C(F)(F)C(F)(F)C(F)(F)C(F)(F)C(F)(F)F` [Perfluorohexanesulfonic acid] (max tested concentration (log10 uM): 2), the max % larvae worked out at 50% in assay [1]; 3.12% in [2]; 0% in assay [3]; 25% in [4]; 0% in assay [5]; 31.2% in assay [6]. Moreover, the max % larvae came to 100% in assay [7] and 31.2% in assay [8].

For the compound `O=C(O)C(F)(F)C(F)(F)C(F)(F)C(F)(F)C(F)(F)C(F)(F)F` [Perfluoroheptanoic acid], the “max % larvae unhatched across tested concentrations” value in assay [10] came to 0%. In addition, the max % larvae in [11] worked out at 16.7%.

On to `FC(F)(F)C(F)(F)CNCC(F)(F)C(F)(F)F` [Bis(1H,1H-perfluoropropyl)amine] (max tested concentration (log10 uM): 2), for which the max % larvae in [1] came to 0%; in assay [2], 0%; in assay [3], 0%; in assay [4], 0%; in assay [5], 0%; in assay [7], 16.7%. The compound further showed a max % larvae in assay [8] of 0%.

In the case of `O=C(O)C(F)(F)C(F)(F)C(F)(F)C(F)(F)C(F)(F)C(F)(F)C(F)(F)F` [Ammonium perfluorooctanoate] (max tested concentration (log10 uM): 2), the max % larvae in assay [1], in [2], in [3], in assay [4], in assay [5] and in assay [6] was 0% in each case. Besides, the max % larvae in assay [7] is 9.09%; in assay [8], 0%.

On to `O=C(O)CCC(F)(F)C(F)(F)C(F)(F)F` [3:3 Fluorotelomer carboxylic acid] (max tested concentration (log10 uM): 2), for which the max % larvae in assay [1] stood at 10%; in [2], 0%; in assay [3], 2.5%; in assay [4], 10%; in assay [5], 0%; in [6], 17.5%. For the same compound, the max % larvae in assay [7] was 20%; in [8] it was 7.5%.

Consider `O=C(O)C(F)(F)C(F)(F)C(=O)O` [Perfluorobutanedioic acid] (max tested concentration (log10 uM): 2), for which the max % larvae in assay [1] was determined as 0%; in [2] it was 0%; in assay [3] it was 0%; in assay [4] it was 8.33%; in assay [5] it was 0%; in [6], 8.33%. In addition, the max % larvae in [7] was 0%; in [8] it was 4.17%.

On to `OCCCCC(F)(F)C(F)(F)C(F)(F)C(F)(F)F` [4:4 Fluorotelomer alcohol] (max tested concentration (log10 uM): 2), for which the max % larvae in [1] came out at 81.2%; in assay [2], 0%; in [3] it was 15.6%; in assay [4] it was 0%; in assay [5] it was 0%; in assay [6], 93.8%. In addition, the max % larvae worked out at 93.8% in [7] and 18.8% in assay [8].
